According to patent publication US9447075B2, “Pyridazine derivatives as EAAT2 activators” (The Brigham and Women's Hospital, Inc., priority 2011, dated 2016):

What was measured:
SOD1(G93A) mice = test: ALS model (SOD1(G93A) mouse model); format: in vivo
From the text: Guidelines established by the ENMC Group were followed (see Ludolph, A. C., et al. Guidelines for the preclinical in vivo evaluation of pharmacological active drugs for ALS/MND: report on the 142nd ENMC international workshop. Amyotroph Lateral Scler 8, 217-223 (2007))^1, which included the use of gender matched mice (i.e. equal number of males and females in each experimental group), use of littermate matched mice (i.e. the littermate of a therapeutic mouse is used in the control group) and use of mice with the same copy number of the SOD1 transgene. SOD1(G93A) mice received Compound 212320 (shown below, shown also as compound 7-4 in FIG. 1) at 40 mg/kg in 500 μl of 1% DMSO/1% polyethylene glycol 400/0.2% Tween 80/10% hydroxypropyl-β-cyclodextrin/saline starting at 84 days of age (6 times/week, at the same time each day) until death or harvested at 120-days of age for analysis. Western blotting, cresyl violet staining and immunofluorescence staining were performed as previously described in Chang, Y., et al. Messenger RNA oxidation occurs early in disease pathogenesis and promotes motor neuron degeneration in ALS. PLoS One 3, e2849 (2008).
Motor function was determined by measuring peak force using a digital grip dynamometer outfitted with a hind limb pull bar assembly (Columbus Instruments). Measurements started from 70 days of age (three times a week, on the same day of each week and at the same time of each scheduled day) until the mouse loses all strength. Six repetitions were conducted and the average was determined for each point. The examiners were unaware of the treatment of the mice. Food and water were placed on the cage floor when mice began to show motor deficits. […] This time point was recorded as the time of death for survival in days.
Referring to FIG. 2, Compound 212320 delayed motor function decline and extended life span in SOD1(G93A) mice. […] Data were analyzed using the dynamic fitting nonlinear regression analysis. […] Data were analyzed using Kaplan-Meier survival analysis. […] Spinal cords from 120-day-old mice were analyzed.

[1] = test system: APPSw/Ind transgenic mice; test: Alzheimer's disease model, Y-maze test; format: in vivo, mouse; conditions: 40 mg/kg i.p. daily for 10 days, 7-month-old mice
Description: Compound 212320 was evaluated in APPSw/Ind transgenic mice, an Alzheimer's disease model. […] 7-month-old mice were treated with 40 mg/kg of Compound 212320 by intraperitoneal injection daily for 10 days and then evaluated the effects on short-term memory by Y-maze test. Compound 212320 restored short-term memory loss in APP mice after 10-day treatment (23 wild-type mice, 21 APP mice).
APPSw/Ind transgenic mice were treated with Compound 212320 at 40 mg/kg or vehicle intraperiotoneally beginning at 7 months after symptoms of memory loss are apparent. After daily treatment for 10 days, Y-maze was used to measure effects on short-term memory.

[2] = Maximum tolerated dose / tolerability study; format: in vivo; conditions: male, C57BL/6, mouse, in vivo, ip; five-day repeat-dose i.p., highest dose tested; read-out: 5-day no observed adverse effect level (NOAEL)
Description: (§1) We determined maximum tolerated dose (MTD) of Compound 212320 in male C57BL/6 mice. The study was conducted in two phases: (I) a single dose tolerability study tested at the doses of 10, 25, 50, and 75 mg/kg i.p. (3 mice/dose) and (II) a five-day repeat-dose tolerability study tested at the doses of 10, 25, 50, and 100 mg/kg i.p. (5 mice/dose). […] In the repeat-dose study, body weights were determined prior to each dose and prior to termination on day 6. Clinical pathologies including standard hematology, serum chemistry and coagulation parameters were evaluated on samples collected on day 6. All animals from phase II were necropsied, and selected organs were weighed. […] Due to lack of toxicity, the highest dose tested, 100 mg/kg/day, was determined to be the 5-day no observed adverse effect level (NOAEL) for Compound 212320.

male C57BL/6 mice = test: Maximum tolerated dose / tolerability study; format: in vivo; conditions: single dose 10-75 mg/kg and five-day repeat dose 10-100 mg/kg i.p.
Description: as §1

CYP1A2 = molecular target: T1, CYP1A2 (Homo sapiens, UniProt P05177); test: In vitro side effect profiling: CYP1A2; format: in vitro ADME; conditions: duplicate, read-out: inhibition on cytochrome p450 CYP1A2
T1 sequence (P05177 1-516): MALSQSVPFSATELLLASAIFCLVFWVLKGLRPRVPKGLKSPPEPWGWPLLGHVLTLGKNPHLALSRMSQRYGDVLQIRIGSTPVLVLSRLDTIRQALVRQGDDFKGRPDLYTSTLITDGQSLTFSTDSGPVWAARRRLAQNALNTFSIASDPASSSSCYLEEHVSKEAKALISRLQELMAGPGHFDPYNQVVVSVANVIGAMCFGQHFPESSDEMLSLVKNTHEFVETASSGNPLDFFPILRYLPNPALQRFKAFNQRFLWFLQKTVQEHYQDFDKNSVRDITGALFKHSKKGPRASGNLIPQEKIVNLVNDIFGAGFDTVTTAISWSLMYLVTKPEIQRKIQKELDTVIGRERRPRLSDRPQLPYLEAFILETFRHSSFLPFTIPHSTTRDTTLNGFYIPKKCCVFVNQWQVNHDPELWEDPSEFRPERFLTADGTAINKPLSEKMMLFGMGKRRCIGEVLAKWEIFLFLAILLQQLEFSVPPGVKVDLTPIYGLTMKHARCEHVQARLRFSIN
Description: (§2) To assess Compound 212320's biological activity and selectivity, we performed an in vitro side effect profiling study. Seventy-one targets were tested at 10 μM in duplicate. These targets include neurotransmitter related receptors (30), steroids (2), ion channels (6), second messenger (1), prostaglandins (3), growth factors/hormones (4), brain/gut peptides (13), enzymes (5) and cytochrome p450 (7). […] Additionally, we performed a protein kinase profiling study. Compound 212320 was tested at 1 and 10 μM against 288 kinases. […] These studies indicate that Compound 212320 has high specificity and low side-effects/toxicity potential.

EphA4 = EphA4 (Homo sapiens, UniProt P54764); test: Protein kinase profiling: EphA4; format: biochemical; conditions: read-out: EphA4 inhibited
Sequence of EphA4 (P54764 20-986, species assumed): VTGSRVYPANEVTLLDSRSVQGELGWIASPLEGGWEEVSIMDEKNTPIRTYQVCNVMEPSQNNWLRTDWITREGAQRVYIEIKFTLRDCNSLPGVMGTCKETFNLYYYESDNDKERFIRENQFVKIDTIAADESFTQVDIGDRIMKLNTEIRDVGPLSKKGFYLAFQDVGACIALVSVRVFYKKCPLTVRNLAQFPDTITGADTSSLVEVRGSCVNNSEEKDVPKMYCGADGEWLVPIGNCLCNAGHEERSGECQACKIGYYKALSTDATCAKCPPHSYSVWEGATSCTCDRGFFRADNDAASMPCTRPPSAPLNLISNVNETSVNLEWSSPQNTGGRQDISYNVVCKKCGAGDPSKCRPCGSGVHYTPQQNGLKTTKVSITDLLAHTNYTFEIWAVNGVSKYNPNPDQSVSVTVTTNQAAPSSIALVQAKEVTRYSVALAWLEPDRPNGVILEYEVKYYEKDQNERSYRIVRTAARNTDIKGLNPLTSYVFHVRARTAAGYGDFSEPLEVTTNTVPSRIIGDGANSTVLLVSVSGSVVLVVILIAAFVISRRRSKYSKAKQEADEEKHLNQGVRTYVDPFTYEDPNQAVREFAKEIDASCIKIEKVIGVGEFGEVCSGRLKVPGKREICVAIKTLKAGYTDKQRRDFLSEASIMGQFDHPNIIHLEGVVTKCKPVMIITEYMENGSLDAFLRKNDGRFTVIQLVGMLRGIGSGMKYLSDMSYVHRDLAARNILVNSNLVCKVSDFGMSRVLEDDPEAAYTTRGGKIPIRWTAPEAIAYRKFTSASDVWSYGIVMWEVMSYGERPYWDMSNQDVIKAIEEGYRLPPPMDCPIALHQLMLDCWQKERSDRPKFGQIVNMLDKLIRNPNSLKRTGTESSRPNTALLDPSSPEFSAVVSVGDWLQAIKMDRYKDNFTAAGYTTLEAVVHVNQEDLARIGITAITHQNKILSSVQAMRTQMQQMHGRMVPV
Description: as §2

EphA5 = EphA5 (Homo sapiens, UniProt P54756); test: Protein kinase profiling: EphA5; format: biochemical; conditions: read-out: EphA5 inhibited
Sequence of EphA5 (P54756 25-1037, species assumed): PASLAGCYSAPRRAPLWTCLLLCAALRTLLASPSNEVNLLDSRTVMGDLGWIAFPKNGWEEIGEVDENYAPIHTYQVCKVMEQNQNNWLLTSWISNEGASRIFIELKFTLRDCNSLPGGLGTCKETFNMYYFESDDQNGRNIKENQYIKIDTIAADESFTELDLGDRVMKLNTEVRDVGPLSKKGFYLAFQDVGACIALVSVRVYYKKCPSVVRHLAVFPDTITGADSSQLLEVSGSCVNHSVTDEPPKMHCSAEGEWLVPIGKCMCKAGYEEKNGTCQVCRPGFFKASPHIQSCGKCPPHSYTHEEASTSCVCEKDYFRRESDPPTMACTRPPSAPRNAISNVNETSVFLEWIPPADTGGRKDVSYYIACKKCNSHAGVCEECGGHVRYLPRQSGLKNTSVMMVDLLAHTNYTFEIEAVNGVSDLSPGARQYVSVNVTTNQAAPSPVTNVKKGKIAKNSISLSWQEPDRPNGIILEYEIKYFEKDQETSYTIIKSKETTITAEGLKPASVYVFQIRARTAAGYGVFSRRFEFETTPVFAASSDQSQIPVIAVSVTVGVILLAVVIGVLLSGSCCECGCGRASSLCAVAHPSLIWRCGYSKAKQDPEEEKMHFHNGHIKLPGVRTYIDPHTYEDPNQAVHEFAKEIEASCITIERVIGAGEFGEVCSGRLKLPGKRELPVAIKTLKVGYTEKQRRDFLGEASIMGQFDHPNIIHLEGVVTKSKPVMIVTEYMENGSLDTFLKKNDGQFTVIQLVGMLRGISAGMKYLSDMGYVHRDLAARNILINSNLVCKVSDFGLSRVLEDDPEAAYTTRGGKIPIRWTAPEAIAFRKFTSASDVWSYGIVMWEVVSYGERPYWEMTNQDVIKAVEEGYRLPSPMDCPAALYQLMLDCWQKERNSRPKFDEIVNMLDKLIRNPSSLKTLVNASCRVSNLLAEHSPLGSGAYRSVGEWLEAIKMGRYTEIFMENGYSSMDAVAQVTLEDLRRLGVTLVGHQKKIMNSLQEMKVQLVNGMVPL
Description: as §2

[3] = test system: All other kinases (288 kinases tested); test: Protein kinase profiling: all other of 288 kinases; format: biochemical; conditions: 1 and 10 μM
Description: as §2

[4] = i.p., 40 mg/kg daily from 84 days of age

Cc1ccccc1CSc1ccc(-c2ccccn2)nn1 [Compound 7-4]
EAAT2 protein levels in spinal cord (western blot) (SOD1(G93A) mice; 120-day-old mice): restores | Life span (survival) (SOD1(G93A) mice; [4]): extended | Motor function decline (grip strength) (SOD1(G93A) mice; [4]): delayed | Short-term memory loss (Y-maze test) [1]: restored | NOAEL at 5 day [2]: 100 mg/kg/day | Clinical signs of toxicity, clinical pathology, body weight (male C57BL/6 mice): no clinical signs of toxicity | inhibition at 10 µM (CYP1A2): 69% | inhibition at 10 µM (EphA4): 44% | inhibition at 10 µM (EphA5): 44% | Activity on all other kinases tested [3]: insignificant activity
